Reference: patent EP1306084A1, “Compositions for the control of parasitic infestations in fish” (Alpharma AS, priority 1998, dated 1999)

Columns and labels:
sea lice [1] = assay: Injection of hexaflumuron in multivalent vaccine formulations, sea lice counts after sea water transfer (Example 10); type: in vivo, salmon (Salmo salar)
Method: The treatment dosage was 9 mg hexaflumuron per kg fish per day for 10 days. This is indicated by "Groups/Timepoints" in the figure; • Figure 2 relates to the trial in Example 2 that was carried out on Atlantic salmon (Salmo salar). […] The treatment dosage varied between 3 - 9 mg hexaflumuron and 9- 12 mg fluazuron per kg fish per day for 7 days. This is indicated by "Groups/Timepoints" in the diagram. […] The treated groups are compared to an untreated control group. The treatment dosage was 4 mg hexaflumuron per kg fish per day for 5 days. This is indicated by "Groups/Timepoints" in the figure. Cage 2 = controls, Cage 4-6 = treated groups, 16.6.97 = time point for sea transfer and 5.8.97= controls treated by bathing with deltamethrin; • Figure 4 relates to the trial described in Example 5, which was carried out on sea trout (Salmo trutta). […] The treated groups are compared with an untreated control group. The dosage for oral treatment was 4 mg hexaflumuron per kilo fish per day for 5 days, and 5 ppm hexaflumuron as a 30 minute bath treatment. This is indicated by "Groups/Timepoints" in the figure. Cage 1.4 = Controls, cage 1.3 = Oral treatment, cage 1.2 = Bath treatment. […] The treated groups are compared with an untreated control group, and one group that has been treated orally with teflubenzuron (10 mg/kg of teflubenzuron per kg fish per day for 7 days). The dosage for oral treatment was 5.6 mg hexaflumuron per kg fish per day for 7 days, and 5 ppm hexaflumuron as a 30 minute bath treatment. […] End of treatment: 22.10.97, Sea transfer: 23.10.97. T1 = 3 weeks post end of treatment, T2 = 5 weeks post end of treatment, T3 = 9 weeks post end of treatment, T4 = 12 weeks post end of treatment; • Figure 6 relates to the trial in Example 6 at time points 4-6, with the same trial parameters as for Figure 5. […]
Following transfer to sea water, the fish were exposed to natural sea lice infestation. Every three weeks lice were counted on 10 fish of each group to assess if the number of lice between the various groups differed. […]

sea lice [2] = assay: Oral hexaflumuron treatment of naturally sea lice infected salmon in sea cages (Example 1); type: in vivo, Atlantic salmon (Salmo salar); settings: 9 mg per kg each day for 10 days
Method: The treatment dosage was 9 mg hexaflumuron per kg fish per day for 10 days. This is indicated by "Groups/Timepoints" in the figure; • Figure 2 relates to the trial in Example 2 that was carried out on Atlantic salmon (Salmo salar). […] The treatment dosage varied between 3 - 9 mg hexaflumuron and 9- 12 mg fluazuron per kg fish per day for 7 days. This is indicated by "Groups/Timepoints" in the diagram. […] The treated groups are compared to an untreated control group. The treatment dosage was 4 mg hexaflumuron per kg fish per day for 5 days. This is indicated by "Groups/Timepoints" in the figure. Cage 2 = controls, Cage 4-6 = treated groups, 16.6.97 = time point for sea transfer and 5.8.97= controls treated by bathing with deltamethrin; • Figure 4 relates to the trial described in Example 5, which was carried out on sea trout (Salmo trutta). […] The treated groups are compared with an untreated control group. The dosage for oral treatment was 4 mg hexaflumuron per kilo fish per day for 5 days, and 5 ppm hexaflumuron as a 30 minute bath treatment. This is indicated by "Groups/Timepoints" in the figure. Cage 1.4 = Controls, cage 1.3 = Oral treatment, cage 1.2 = Bath treatment. […] The treated groups are compared with an untreated control group, and one group that has been treated orally with teflubenzuron (10 mg/kg of teflubenzuron per kg fish per day for 7 days). […]

sea lice [3] = assay: Field trial: medicated feed before sea transfer, recapture of tagged fish, sea lice infection (Example 3); type: in vivo, wild sea trout (Salmo trutta); settings: about 3 mg per fish per day for six days in feed before sea transfer; 13 treated fish caught June 20 to August 7
Method: About 2,000 wild sea trout (Salmo trutta) were divided into two groups and marked with Carlin tags in two different colours (yellow or red) so that individuals of the groups could easily be distinguished from each other when observed in the water. The group with yellow Carlin tags were given feed containing hexaflumuron. The dose was about 3 mg of hexaflumuron per fish per day for six days. The feeding was done the last week before they were transferred to the sea in the beginning of May. The control group had red Carlin tags and was fed ordinary fish feed until sea transfer. Both groups of fish were transferred to the sea 200 metres from the river mouth of the Bondhus River in Hordaland in Norway. From sea transfer (May 8) until August 7, neighbouring rivers and estuaries round these rivers were examined every week, using fishing by application of high voltage and net fishing.
Tagged fish was not caught until June 20. From June 20 to August 7, 22 control fish and 13 treated fish were caught. The untreated fish were caught in the lower parts of the rivers and were heavily infected with sea lice. The 13 treated fish were exclusively caught in the estuary around the rivers (in sea water), none were caught in freshwater.

[4] = injected in vaccine formulations

O=C(NC(=O)c1c(F)cccc1F)Nc1cc(Cl)c(OC(F)(F)C(F)F)c(Cl)c1 [hexaflumuron]
number of sea lice versus control (sea lice [1]; 9 and 12 weeks after sea water transfer (T3 and T4), 3 formulations, 25 mg per ml vaccine): significantly lower | protection against recurrent infestation after injection (sea lice [1]; [4]): ≥ 18 weeks | protection against recurrent infestation after sea water transfer (sea lice [1]; [4]): at least 12 weeks | reduction of sensitive chalimus and pre-adult stages (sea lice [2]): about 95% | reduced the number of lice as compared to the control group (sea lice [2]; medicated pellets, 7.6 - 9.4°C): more than 90% | signs of sea lice infections in recaptured fish (sea lice [3]): None of the treated fish showed signs of sea lice infections
